Patent publication US9932637B2, “Genetic polymorphisms associated with cardiovascular disorders and drug response, methods of detection and uses thereof” (CELERA CORPORATION, priority 2003, dated 2018)

System: patients with prior myocardial infarction (CARE study)
Test: CARE: association of SNPs with pravastatin treatment in cardiovascular events prevention (logistic regression, odds ratio pravastatin vs placebo by genotype; Table 8)
Format: in vivo, human
Conditions: All Patients; for Total Cardiovascular Disease Events, n/total (%) / Non-fatal MI (def & prob), n/total (%) / Fatal/Non-fatal MI (def & prob), n/total (%) / Fatal/Non-fatal Atherosclerotic CV Disease, n/total (%) / Hosp. for Cardiovascular Disease, n/total (%) / Total Mortality, n/total (%): Prava
Text: In order to identify genetic markers associated with acute coronary events (e.g. MI, stroke, unstable angina, congestive heart failure, etc.) or response to statin treatment for the prevention of coronary events, samples from the Cholesterol and Recurrent Events (CARE) study (a randomized multicentral double-blinded trial on secondary prevention of acute coronary events with pravastatin) (Sacks et al., 1991, Am. J. Cardiol. 68: 1436-1446) were genotyped. A well-documented myocardial infarction (MI) was one of the enrollment criteria for entry into the CARE study. Patients were enrolled in the CARE trial from 80 participating study centers. […] Patients were randomized to receive either 40 mg of pravastatin once daily or a matching placebo. The primary endpoint of the trial was death from coronary heart disease and the median duration of follow-up was 5.0 years (range, 4.0 to 6.2 years). […] Secondary endpoints of other related cardiovascular or metabolic disease events, and changes in clinical variables were also recorded in pravastatin-treated and placebo groups. All individuals included in the study had signed a written informed consent form and the study protocol was approved by the respective Institutional Review Boards (IRBs).
For genotyping SNPs in CARE patient samples, DNA was extracted from blood samples using conventional DNA extraction methods such as the QIA-amp kit from Qiagen. Genotypes were obtained on an ABI PRISM® 7900HT Sequence Detection PCR system (Applied Biosystems, Foster City, Calif.) by kinetic allele-specific PCR, similar to the method described by Germer et al. (Germer S., Holland M. J., Higuchi R. 2000, Genome Res. 10: 258-266).
Statistical analysis for association of SNPs with pravastatin treatment in cardiovascular events prevention (Table 8) was carried out using an overall logistic regression model that included an intercept, a parameter for the effect of a genotype containing two rare alleles versus a genotype containing no rare alleles, a parameter for the effect of a genotype containing one rare allele versus a genotype containing no rare alleles, a parameter for the effect of use of pravastatin versus the use of placebo, and parameters for the interaction effects between SNP genotypes and pravastatin use. The test of the overall model is a chi-square test with two degrees of freedom for analyses containing all three genotypes, and one degree of freedom for analyses containing two genotypes.
Effect sizes were estimated through odds ratios (pravastatin group versus placebo) for carriers of each genotype (groups of 0, 1, and 2 minor allele carriers). The effect was considered to be significant if p-value for testing whether any of the interactions between SNP genotypes and pravastatin use were <0.05. […] Odds ratios less than one indicate that the specific SNP allele has a protective effect and odds ratios greater than one indicate that the specific SNP allele has an adverse effect.

[1] = HLA-DPB1 hCV25651174, Coronary Artery Bypass or Revascularization
[2] = HLA-DPB1 hCV25651174, Fatal CHD/Definite Non-fatal MI
[3] = HLA-DPB1 hCV25651174, Fatal/Non-fatal Atherosclerotic CV Disease
[4] = HLA-DPB1 hCV25651174, Fatal/Non-fatal MI (def & prob)
[5] = HLA-DPB1 hCV25651174, Hosp. for Cardiovascular Disease
[6] = HLA-DPB1 hCV25651174, Non-fatal MI (def & prob)
[7] = HLA-DPB1 hCV25651174, Total Cardiovascular Disease Events
[8] = HLA-DPB1 hCV25651174, Total Coronary Heart Disease Events
[9] = ICAM1 hCV8726337, Fatal/Non-fatal MI (def & prob)
[10] = ICAM1 hCV8726337, Non-fatal MI (def & prob)
[11] = ICAM3 hCV25473653, Fatal/Non-fatal Atherosclerotic CV Disease
[12] = ICAM3 hCV25473653, Total Cardiovascular Disease Events
[13] = IGF2R hCV2200985, Hosp. for Cardiovascular Disease

## CC[C@H](C)C(=O)O[C@H]1C[C@H](O)C=C2C=C[C@H](C)[C@H](CC[C@@H](O)C[C@@H](O)CC(=O)O)[C@H]21 [pravastatin]
HLA-DPB1 hCV25651174, 2 Rare Alleles, n/total 64/144
  Total Cardiovascular Disease Events, n/total (%): (44.4%)
[1]
  Prava vs. Placebo Odds Ratio, 0 Rare Alleles: 0.68
  Prava vs. Placebo Odds Ratio, 1 Rare Alleles: 0.58
  Prava vs. Placebo Odds Ratio, 2 Rare Alleles: 2.11
[2]
  Prava vs. Placebo Odds Ratio, 0 Rare Alleles: 0.57
  Prava vs. Placebo Odds Ratio, 1 Rare Alleles: 0.74
  Prava vs. Placebo Odds Ratio, 2 Rare Alleles: 1.77
[3]
  Prava vs. Placebo Odds Ratio, 0 Rare Alleles: 0.66
  Prava vs. Placebo Odds Ratio, 1 Rare Alleles: 0.78
  Prava vs. Placebo Odds Ratio, 2 Rare Alleles: 1.60
[4]
  Prava vs. Placebo Odds Ratio, 0 Rare Alleles: 0.54
  Prava vs. Placebo Odds Ratio, 1 Rare Alleles: 0.67
  Prava vs. Placebo Odds Ratio, 2 Rare Alleles: 1.97
[5]
  Prava vs. Placebo Odds Ratio, 0 Rare Alleles: 0.70
  Prava vs. Placebo Odds Ratio, 1 Rare Alleles: 0.70
  Prava vs. Placebo Odds Ratio, 2 Rare Alleles: 1.42
[6]
  Prava vs. Placebo Odds Ratio, 0 Rare Alleles: 0.59
  Prava vs. Placebo Odds Ratio, 1 Rare Alleles: 0.68
  Prava vs. Placebo Odds Ratio, 2 Rare Alleles: 2.23
[7]
  Prava vs. Placebo Odds Ratio, 0 Rare Alleles: 0.69
  Prava vs. Placebo Odds Ratio, 1 Rare Alleles: 0.71
  Prava vs. Placebo Odds Ratio, 2 Rare Alleles: 1.35
[8]
  Prava vs. Placebo Odds Ratio, 0 Rare Alleles: 0.69
  Prava vs. Placebo Odds Ratio, 1 Rare Alleles: 0.73
  Prava vs. Placebo Odds Ratio, 2 Rare Alleles: 1.81
ICAM1 hCV8726337, 0 Rare Alleles, n/total 28/495
  Non-fatal MI (def & prob), n/total (%): (5.7%)
ICAM1 hCV8726337, 0 Rare Alleles, n/total 31/495
  Fatal/Non-fatal MI (def & prob), n/total (%): (6.3%)
ICAM1 hCV8726337, 1 Rare Allele, n/total 76/736
  Non-fatal MI (def & prob), n/total (%): (10.3%)
ICAM1 hCV8726337, 1 Rare Allele, n/total 84/736
  Fatal/Non-fatal MI (def & prob), n/total (%): (11.4%)
ICAM1 hCV8726337, 2 Rare Alleles, n/total 30/282
  Non-fatal MI (def & prob), n/total (%): (10.6%)
ICAM1 hCV8726337, 2 Rare Alleles, n/total 31/282
  Fatal/Non-fatal MI (def & prob), n/total (%): (11.0%)
[9]
  Prava vs. Placebo Odds Ratio, 0 Rare Alleles: 0.39
  Prava vs. Placebo Odds Ratio, 1 Rare Alleles: 0.85
  Prava vs. Placebo Odds Ratio, 2 Rare Alleles: 0.77
[10]
  Prava vs. Placebo Odds Ratio, 0 Rare Alleles: 0.39
  Prava vs. Placebo Odds Ratio, 1 Rare Alleles: 0.83
  Prava vs. Placebo Odds Ratio, 2 Rare Alleles: 0.94
ICAM3 hCV25473653, 0 Rare Alleles, n/total 299/924
  Fatal/Non-fatal Atherosclerotic CV Disease, n/total (%): (32.4%)
ICAM3 hCV25473653, 0 Rare Alleles, n/total 376/924
  Total Cardiovascular Disease Events, n/total (%): (40.7%)
ICAM3 hCV25473653, 1 Rare Allele, n/total 191/511
  Fatal/Non-fatal Atherosclerotic CV Disease, n/total (%): (37.4%)
ICAM3 hCV25473653, 1 Rare Allele, n/total 230/511
  Total Cardiovascular Disease Events, n/total (%): (45.0%)
ICAM3 hCV25473653, 2 Rare Alleles, n/total 14/70
  Fatal/Non-fatal Atherosclerotic CV Disease, n/total (%): (20.0%)
ICAM3 hCV25473653, 2 Rare Alleles, n/total 19/70
  Total Cardiovascular Disease Events, n/total (%): (27.1%)
[11]
  Prava vs. Placebo Odds Ratio, 0 Rare Alleles: 0.71
  Prava vs. Placebo Odds Ratio, 1 Rare Alleles: 0.97
  Prava vs. Placebo Odds Ratio, 2 Rare Alleles: 0.37
[12]
  Prava vs. Placebo Odds Ratio, 0 Rare Alleles: 0.71
  Prava vs. Placebo Odds Ratio, 1 Rare Alleles: 0.93
  Prava vs. Placebo Odds Ratio, 2 Rare Alleles: 0.37
IGF2R hCV2200985, 0 Rare Alleles, n/total 465/1175
  Hosp. for Cardiovascular Disease, n/total (%): (39.6%)
IGF2R hCV2200985, 1 Rare Allele, n/total 137/316
  Hosp. for Cardiovascular Disease, n/total (%): (43.4%)
IGF2R hCV2200985, 2 Rare Alleles, n/total 5/24
  Hosp. for Cardiovascular Disease, n/total (%): (20.8%)
[13]
  Prava vs. Placebo Odds Ratio, 0 Rare Alleles: 0.75
  Prava vs. Placebo Odds Ratio, 1 Rare Alleles: 0.88
  Prava vs. Placebo Odds Ratio, 2 Rare Alleles: 0.12
IL1A hCV9546471, 0 Rare Alleles, n/total 52/759
  Total Mortality, n/total (%): (6.9%)
IL1A hCV9546471, 1 Rare Allele, n/total 28/617
  Total Mortality, n/total (%): (4.5%)
IL1A hCV9546471, 2 Rare Alleles, n/total 4/132
  Total Mortality, n/total (%): (3.0%)
IL1A hCV9546471, Total Mortality
  Prava vs. Placebo Odds Ratio, 0 Rare Alleles: 1.40
